Assay results from patent publication US20240270762A1, “PENICILLIN-BINDING PROTEIN INHIBITORS” (priority 2021, published 2024).
≈ marks a conversion by molar mass, not a printed value.

How the values were obtained:
P. aeruginosa CDC-0054 = assay: microbe, parasite or virus in culture; type: cell-based; conditions: Pseudomonas aeruginosa, CDC0054, read-out: Minimum inhibitory concentration, P. aeruginosa CDC-0054
A. baumannii 1258916 = assay: microbe, parasite or virus in culture; type: cell-based, Acinetobacter baumannii; conditions: Acinetobacter baumannii, 1258916, read-out: MIC, A. baumannii 1258916
A. baumannii ATCC 17978 = assay: microbe, parasite or virus in culture; type: cell-based; conditions: Acinetobacter baumannii, ATCC17978, read-out: MIC, A. baumannii ATCC 17978
A. baumannii CDC-0036 = assay: microbe, parasite or virus in culture; type: cell-based; conditions: Acinetobacter baumannii, CDC0036, read-out: MIC, A. baumannii CDC-0036
[1] = tested on: B. thailandensis ATCC 700388; assay: microbe, parasite or virus in culture; type: cell-based; conditions: Burkholderia thailandensis, ATCC700388, read-out: Minimum inhibitory concentration (MIC), B. thailandensis ATCC 700388
[2] = tested on: P. aeruginosa (ΔmexAB-oprM); assay: Broth microdilution MIC in iron-depleted CAMHB (IDM); type: cell-based; conditions: Pseudomonas aeruginosa; iron-depleted CAMHB (IDM); […]; read-out: Minimum inhibitory concentration, P. aeruginosa ΔmexAB-oprM
A. baumannii PBP1a = molecular target: T1, A. baumannii PBP1a (Acinetobacter baumannii, UniProt A0ABX6CK30); assay: Bocillin-FL competition binding via gel filtration, A. baumannii PBP1a; conditions: competition binding assay using Bocillin-FL via gel filtration; read-out: A. baumannii PBP1a Potency
T1 sequence (A0ABX6CK30 1-851): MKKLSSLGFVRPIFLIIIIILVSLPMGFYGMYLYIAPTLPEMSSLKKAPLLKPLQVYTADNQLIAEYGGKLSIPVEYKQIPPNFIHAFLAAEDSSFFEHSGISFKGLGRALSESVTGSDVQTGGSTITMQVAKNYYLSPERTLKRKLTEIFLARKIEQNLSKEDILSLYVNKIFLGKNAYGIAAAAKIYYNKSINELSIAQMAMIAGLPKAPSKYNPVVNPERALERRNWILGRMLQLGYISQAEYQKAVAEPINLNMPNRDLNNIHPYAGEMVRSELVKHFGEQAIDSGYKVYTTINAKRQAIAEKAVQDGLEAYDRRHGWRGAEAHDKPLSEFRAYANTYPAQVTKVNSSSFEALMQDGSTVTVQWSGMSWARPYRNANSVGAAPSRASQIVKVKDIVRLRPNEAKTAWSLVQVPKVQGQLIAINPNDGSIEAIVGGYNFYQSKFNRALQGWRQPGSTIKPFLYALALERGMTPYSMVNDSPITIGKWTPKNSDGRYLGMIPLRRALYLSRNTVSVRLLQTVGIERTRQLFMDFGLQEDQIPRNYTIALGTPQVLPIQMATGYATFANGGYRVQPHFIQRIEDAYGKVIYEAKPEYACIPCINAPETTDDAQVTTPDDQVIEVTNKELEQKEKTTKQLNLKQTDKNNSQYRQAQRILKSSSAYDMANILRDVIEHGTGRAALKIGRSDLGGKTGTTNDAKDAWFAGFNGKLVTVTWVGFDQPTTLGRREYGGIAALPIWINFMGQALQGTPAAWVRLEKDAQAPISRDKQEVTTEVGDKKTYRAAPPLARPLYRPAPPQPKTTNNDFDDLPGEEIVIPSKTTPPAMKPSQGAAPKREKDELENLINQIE
Method in brief: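 Enzyme was pre-incubated with rising inhibitor concentrations, then Bocillin-FL was added and incubated 15 minutes more. Bound probe was separated by gel filtration and fluorescence read. EC50 came from fitting fraction of PBP labelled versus inhibitor concentration to a Hill equation with ymin, ymax and n.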

Row | SMILES | MIC (P. aeruginosa CDC-0054) [µg/mL] | MIC (A. baumannii 1258916) [µg/mL] | MIC (A. baumannii ATCC 17978) [µg/mL] | MIC (A. baumannii CDC-0036) [µg/mL] | MIC [1] [µg/mL] | MIC [2] [µg/mL] | EC50 (A. baumannii PBP1a) [µM]
1 | O=C(NCCS(=O)(=O)N1CCN(C(=O)N[C@@H](C(=O)N[C@H]2Cc3ccc(F)c(C(=O)O)c3OB2O)c2cc(F)c(O)c(O)c2Cl)C1=O)c1ccc(O)cc1 [Example 287, (R)-3-((R)-2-(2-chloro-5-fluoro-3,4-dihydroxyphenyl)-2-(3-((2-(4-hydroxybenzamido)ethyl)sulfonyl)-2-oxoimidazolidine-1-carboxamido)acetamido)-7-fluoro-2-hydroxy-3,4-dihydro-2H-benzo[e][1,2]oxaborinine-8-carboxylic acid] | 2 to 4 (≈ 2.56 to 5.12 µM) | < 1 | < 1 | 2 to 4 (≈ 2.56 to 5.12 µM) | 2 to 4 (≈ 2.56 to 5.12 µM) | < 1 | 10 to 50
2 | Cc1cc(C(=O)NCCCN2CCN(C(=O)N[C@@H](C(=O)N[C@H]3Cc4ccc(F)c(C(=O)O)c4OB3O)c3cc(F)c(O)c(O)c3Cl)C(=O)C2=O)ccn1 [Example 298, (R)-3-((R)-2-(2-chloro-5-fluoro-3,4-dihydroxyphenyl)-2-(4-(3-(2-methylisonicotinamido)propyl)-2,3-dioxopiperazine-1-carboxamido)acetamido)-7-fluoro-2-hydroxy-3,4-dihydro-2H-benzo[e][1,2]oxaborinine-8-carboxylic acid] | < 1 | < 1 | < 1 | < 1 | < 1 | < 1 | 10 to 50
3 | O=C(NCCCN1CCN(C(=O)NC(C(=O)N[C@H]2Cc3ccc(F)c(C(=O)O)c3OB2O)c2cc(F)c(O)c(O)c2Cl)C(=O)C1=O)c1cc(O)ccc1F (stereo partly drawn) [Example 407, (3R)-3-(2-(2-chloro-5-fluoro-3,4-dihydroxyphenyl)-2-(4-(3-(2-fluoro-5-hydroxybenzamido)propyl)-2,3-dioxopiperazine-1-carboxamido)acetamido)-7-fluoro-2-hydroxy-3,4-dihydro-2H-benzo[e][1,2]oxaborinine-8-carboxylic acid] | < 1 | 2 to 4 (≈ 2.57 to 5.14 µM) | < 1 | 2 to 4 (≈ 2.57 to 5.14 µM) | 2 to 4 (≈ 2.57 to 5.14 µM) | < 1 | < 10
4 | O=C(NCCCN1CCN(C(=O)NC(C(=O)N[C@H]2Cc3ccc(F)c(C(=O)O)c3OB2O)c2cc(F)c(O)c(O)c2Cl)C(=O)C1=O)c1ccc(O)cc1O (stereo partly drawn) [Example 307, (3R)-3-(2-(2-chloro-5-fluoro-3,4-dihydroxyphenyl)-2-(4-(3-(2,4-dihydroxybenzamido)propyl)-2,3-dioxopiperazine-1-carboxamido)acetamido)-7-fluoro-2-hydroxy-3,4-dihydro-2H-benzo[e][1,2]oxaborinine-8-carboxylic acid] | 2 to 4 (≈ 2.58 to 5.16 µM) | < 1 | < 1 | 2 to 4 (≈ 2.58 to 5.16 µM) | 8 to 16 (≈ 10.3 to 20.6 µM) | < 1 | < 10
5 | O=C(NCCCN1CCN(C(=O)NC(C(=O)N[C@H]2Cc3ccc(F)c(C(=O)O)c3OB2O)c2cc(F)c(O)c(O)c2Cl)C(=O)C1=O)c1c(F)cncc1Cl (stereo partly drawn) [Example 403, (3R)-3-(2-(2-chloro-5-fluoro-3,4-dihydroxyphenyl)-2-(4-(3-(3-chloro-5-fluoroisonicotinamido)propyl)-2,3-dioxopiperazine-1-carboxamido)acetamido)-7-fluoro-2-hydroxy-3,4-dihydro-2H-benzo[e][1,2]oxaborinine-8-carboxylic acid] | < 1 | 2 to 4 (≈ 2.51 to 5.02 µM) | < 1 | 2 to 4 (≈ 2.51 to 5.02 µM) | 2 to 4 (≈ 2.51 to 5.02 µM) | < 1 | 10 to 50
6 | O=C(NCCCN1CCN(C(=O)NC(C(=O)N[C@H]2Cc3ccc(F)c(C(=O)O)c3OB2O)c2cc(F)c(O)c(O)c2Cl)C(=O)C1=O)c1cc(O)cc(O)c1 (stereo partly drawn) [Example 423, (3R)-3-(2-(2-chloro-5-fluoro-3,4-dihydroxyphenyl)-2-(4-(3-(3,5-dihydroxybenzamido)propyl)-2,3-dioxopiperazine-1-carboxamido)acetamido)-7-fluoro-2-hydroxy-3,4-dihydro-2H-benzo[e][1,2]oxaborinine-8-carboxylic acid] | < 1 | < 1 | < 1 | 2 to 4 (≈ 2.58 to 5.16 µM) | < 1 | < 1 | < 10
7 | O=C(NCCCN1CCN(C(=O)NC(C(=O)N[C@H]2Cc3ccc(F)c(C(=O)O)c3OB2O)c2cc(F)c(O)c(O)c2Cl)C(=O)C1=O)c1cc(O)ccc1Cl (stereo partly drawn) [Example 408, (3R)-3-(2-(2-chloro-5-fluoro-3,4-dihydroxyphenyl)-2-(4-(3-(2-chloro-5-hydroxybenzamido)propyl)-2,3-dioxopiperazine-1-carboxamido)acetamido)-7-fluoro-2-hydroxy-3,4-dihydro-2H-benzo[e][1,2]oxaborinine-8-carboxylic acid] | < 1 | 2 to 4 (≈ 2.52 to 5.04 µM) | < 1 | 8 to 16 (≈ 10.1 to 20.1 µM) | 2 to 4 (≈ 2.52 to 5.04 µM) | < 1 | < 10
8 | O=C(O)c1c(F)ccc2c1OB(O)[C@@H](NC(=O)C(NC(=O)N1CCN(C3CCN(C(=O)c4ccc(O)cc4)CC3)C(=O)C1=O)c1cc(F)c(O)c(O)c1Cl)C2 (stereo partly drawn) [Example 427, (3R)-3-(2-(2-chloro-5-fluoro-3,4-dihydroxyphenyl)-2-(4-(1-(4-hydroxybenzoyl)piperidin-4-yl)-2,3-dioxopiperazine-1-carboxamido)acetamido)-7-fluoro-2-hydroxy-3,4-dihydro-2H-benzo[e][1,2]oxaborinine-8-carboxylic acid] | 2 to 4 (≈ 2.54 to 5.09 µM) | < 1 | < 1 | < 1 | < 1 | < 1 | < 10
9 | O=C(NCCN1CCN(C(=O)N[C@@H](C(=O)N[C@H]2Cc3ccc(F)c(C(=O)O)c3OB2O)c2cc(F)c(O)c(O)c2Cl)C1=O)Nc1ccc(O)cc1 [Example 279, (R)-3-((R)-2-(2-chloro-5-fluoro-3,4-dihydroxyphenyl)-2-(3-(2-(3-(4-hydroxyphenyl)ureido)ethyl)-2-oxoimidazolidine-1-carboxamido)acetamido)-7-fluoro-2-hydroxy-3,4-dihydro-2H-benzo[e][1,2]oxaborinine-8-carboxylic acid] | < 1 | < 1 | < 1 | < 1 | < 1 | < 1 | < 10
10 | O=C(NCCCN1CCN(C(=O)NC(C(=O)N[C@H]2Cc3ccc(F)c(C(=O)O)c3OB2O)c2cc(F)c(O)c(O)c2Cl)C(=O)C1=O)c1cc(F)ncc1F (mixture of isomers) [Example 405] | 2 to 4 | 2 to 4 | < 1 | 2 to 4 | < 1 | < 1 | 10 to 50
11 | O=C(NCCCS(=O)(=O)N1CCN(C(=O)NC(C(=O)N[C@H]2Cc3ccc(F)c(C(=O)O)c3OB2O)c2cc(F)c(O)c(O)c2Cl)C1=O)Nc1cccc(O)c1 (stereo partly drawn) [Example 277, (3R)-3-(2-(2-chloro-5-fluoro-3,4-dihydroxyphenyl)-2-(3-((3-(3-(3-hydroxyphenyl)ureido)propyl)sulfonyl)-2-oxoimidazolidine-1-carboxamido)acetamido)-7-fluoro-2-hydroxy-3,4-dihydro-2H-benzo[e][1,2]oxaborinine-8-carboxylic acid] | 2 to 4 (≈ 2.47 to 4.93 µM) | 2 to 4 (≈ 2.47 to 4.93 µM) | < 1 | 2 to 4 (≈ 2.47 to 4.93 µM) | 32 to 64 (≈ 39.5 to 78.9 µM) | < 1 | < 10
12 | O=C(O)c1c(F)ccc2c1OB(O)[C@@H](NC(=O)C(NC(=O)N1CCN(C3CCN(C(=O)Cc4cccc(O)c4)CC3)C(=O)C1=O)c1cc(F)c(O)c(O)c1Cl)C2 (stereo partly drawn) [Example 474, (3R)-3-(2-(2-chloro-5-fluoro-3,4-dihydroxyphenyl)-2-(4-(1-(2-(3-hydroxyphenyl)acetyl)piperidin-4-yl)-2,3-dioxopiperazine-1-carboxamido)acetamido)-7-fluoro-2-hydroxy-3,4-dihydro-2H-benzo[e][1,2]oxaborinine-8-carboxylic acid] | < 1 | < 1 | < 1 | < 1 | 2 to 4 (≈ 2.5 to 5 µM) | < 1 | 10 to 50
